Key:
[1] = tested on: HL-60; test: Inhibitory activity on the proliferation of Human myeloid leukemia HL-60 cancer cells using MTT or sulforhodamine B assay; type: functional, cell-based
[2] = tested on: HT-1080; test: Inhibitory activity on the proliferation of Human fibrosarcoma HT1080 cancer cells using MTT or sulforhodamine B assay; type: functional, cell-based
[3] = Inhibitory activity on the proliferation of Human colon carcinoma […] cancer cells using MTT or sulforhodamine B assay; type: functional, cell-based; conditions: Cancer cell lines
[4] = tested on: A549; test: Inhibitory activity on the proliferation of Human lung carcinoma A549 cancer cells using MTT or sulforhodamine B assay; type: functional, cell-based
[5] = tested on: A549; test: Effect of compound on cell cycle progression in Human lung A549 cancer cells at G2/M phase after 8 hours of administration; type: functional
[6] = tested on: A549; test: Effect of compound on cell cycle progression in Human lung A549 cancer cells at G0/G1 phase after 8 hours of administration; type: functional
[7] = tested on: A549; test: Effect of compound on cell cycle progression in Human lung A549 cancer cells at G2/M phase after 16 hours of administration; type: functional
[8] = tested on: A549; test: Effect of compound on cell cycle progression in Human lung A549 cancer cells at G2/M phase after 24 hours of administration; type: functional
[9] = tested on: A549; test: Effect of compound on cell cycle progression in Human lung A549 cancer cells at G0/G1 phase after 16 hours of administration; type: functional
[10] = tested on: A549; test: Effect of compound on cell cycle progression in Human lung A549 cancer cells at G0/G1 phase after 24 hours of administration; type: functional
[11] = tested on: A549; test: Effect of compound on cell cycle progression in Human lung A549 cancer cells at Sub-G0 phase after 8 hours of administration; type: functional
[12] = tested on: A549; test: Effect of compound on cell cycle progression in Human lung A549 cancer cells at S phase after 8 hours of administration; type: functional
[13] = tested on: A549; test: Effect of compound on cell cycle progression in Human lung A549 cancer cells at S phase after 16 hours of administration; type: functional
[14] = tested on: A549; test: Effect of compound on cell cycle progression in Human lung A549 cancer cells at S phase after 24 hours of administration; type: functional
[15] = tested on: A549; test: Effect of compound on cell cycle progression in Human lung A549 cancer cells at Sub-G0 phase after 16 hours of administration; type: functional
[16] = tested on: A549; test: Effect of compound on cell cycle progression in Human lung A549 cancer cells at Sub-G0 phase after 24 hours of administration; type: functional

IC50 [1] [µM] | IC50 [2] [µM] | IC50 [4] [µM] | SMILES | IC50 [3] [µM] | Activity [5] [%] | Activity [6] [%] | Activity [7] [%] | Activity [8] [%] | Activity [9] [%] | Activity [10] [%] | Activity [11] [%] | Activity [12] [%] | Activity [13] [%] | Activity [14] [%] | Activity [15] [%] | Activity [16] [%]
> 100 | > 100 | > 100 | O=C1C(c2c(O)[nH]c3ccc(S(=O)(=O)O)cc23)=Nc2ccccc21 | > 100 |  |  |  |  |  |  |  |  |  |  |  | 
9.2 | 5.9 | 5.4 | O=Nc1c(-c2c(O)[nH]c3ccc([N+](=O)[O-])cc23)[nH]c2ccccc12 | 25.5 | 27.1 | 46.1 | 21.7 | 22 | 46.5 | 39.9 | 0 | 26.8 | 31.8 | 16.1 | 0 | 22
> 100 | 4.8 | 62 | O=Nc1c(-c2c(O)[nH]c3ccccc23)[nH]c2ccccc12 [INDIRUBIN-3-MONOXIME] | > 100 |  |  |  |  |  |  |  |  |  |  |  | 
> 100 | 42.2 | 31 | O=C1Nc2ccccc2/C1=C1/Nc2ccccc2C1=O [INDIRUBIN] | > 100 |  |  |  |  |  |  |  |  |  |  |  | 

Source: ChEMBL document CHEMBL1140278, “Induction of apoptosis by a novel indirubin-5-nitro-3'-monoxime, a CDK inhibitor, in human lung cancer cells” (Bioorg Med Chem Lett, 2005)
